Values joined by “and” are separate entries in the source; they are usually repeats but may differ in a detail not shown here. Equal values may be shown once. Values belong to the compound of their own block, whether it stands above or below them.
Legend:
[1] = test system: subjects with low serum 1,25-dihydroxyvitamin D; assay: 24-week oral doxercalciferol therapy in subjects with low serum 1,25-dihydroxyvitamin D (Example 4); type: in vivo, human
Method: (§1) 1α-(OH)D2 (doxercalciferol) is used as a treatment for subjects with low serum 1,25-dihydroxyvitamin D in a study involving 50 adults, ages 18-85 years. The subjects have serum 1,25-dihydroxyvitamin D levels below 20 pg/dL and complete an eight-week baseline period and then 24 weeks of therapy with orally administered doxercalciferol. The initial dose of 1α-(OH)D2 is 2 capsules daily (totaling 1.0 μg), with increases in steps of one capsule per day permitted after four weeks. The maximum dosage is limited to 10 capsules per day (5.0 μg/day of doxercalciferol). Subjects are monitored at regular intervals for plasma iPTH, serum calcium and phosphorus, 24-hour and fasting urinary calcium, bone-specific serum markers, plasma total 1α,25-(OH)2D, and routine blood chemistries and hematologies.

[2] = test system: subjects with low serum calcium; assay: 24-week oral doxercalciferol therapy in subjects with low serum calcium (Example 3); type: in vivo, human
Method: as §1, with “calcium” for “1,25-dihydroxyvitamin D”, “8.6 mg/dL” for “20 pg/dL”

[3] = test system: postmenopausal osteoporotic outpatients; assay: 104-week placebo-controlled study of oral 1α-(OH)D2 in postmenopausal osteoporotic outpatients (Example 1); type: in vivo, human
Description: 1α-(OH)D2 was used to treat osteoporosis was confirmed in a study involving 60 postmenopausal osteoporotic outpatients. […] Exclusion criteria encompassed significant medical disorders and recent use of medications known to affect bone or calcium metabolism. On admission to the study, each subject was assigned at random to one of two treatment groups; one group received up to a 104-week course of therapy with 1α-(OH)D2; the other received only placebo therapy. All subjects received instruction on selecting a daily diet containing 700-900 mg of calcium and were advised to adhere to this diet over the course of the study. Compliance to the diet was verified at regular intervals by 24-hour food records and by interviews with each subject. During the treatment period, subjects from one group orally self-administered 1α-(OH)D2 at an initial dosage of 1.0 μg/day for one week, and increased the dosage to 2.0, 3.0, 4.0 μg/day in each of the following weeks, to a maximum dosage of 5.0 μg/day. The dosage for any given subject was increased in this way until the rate of urinary calcium excretion was elevated to approximately 275-300 mg/24 hours, at which point the subject held the dosage constant at the highest level attained. Subjects from the second group self-administered a matching placebo medication every day, titrating the apparent dosage upwards in the same manner as subjects being treated with 1α-(OH)D2. Spinal and femoral neck BMD were measured in all subjects by DEXA at the beginning of the study, and at six-month intervals thereafter. Intestinal calcium absorption was estimated in all subjects by a single isotope technique at the beginning of the study, and at 12-month intervals. Serum levels of vitamin D metabolites were determined by radioreceptor binding assays at baseline and at six-month intervals. Serum osteocalcin, serum PTH and urine hydroxyproline also were determined at baseline and at six-month intervals. Other blood and urine chemistries were monitored at regular intervals during the treatment period. These chemistries included serum calcium, serum ionized calcium, urine calcium, blood urea nitrogen, serum creatinine and creatinine clearance. Kidney-ureter-bladder (KUB) x-rays were obtained at baseline and at 12-month intervals thereafter.

[4] = test system: subjects with chronic kidney disease with elevated blood PTH; assay: 24-week double-blinded placebo-controlled study of oral doxercalciferol in secondary hyperparathyroidism with mild to moderate chronic kidney disease (Example 2); type: in vivo, human; settings: for Mean (±SE) plasma iPTH: baseline 219.1±22.3 pg/mL
Description: 1α-(OH)D2 (doxercalciferol) was used as a treatment for hyperparathyroidism associated with chronic kidney disease was confirmed in a study involving 55 adults, ages 18-85 years, with mild to moderate chronic kidney disease. The subjects had plasma intact parathyroid hormone (iPTH) levels above 85 pg/mL and completed an eight-week baseline period and then 24 weeks of therapy with either orally administered doxercalciferol or placebo. The initial dose of test drug was 2 capsules daily (totaling 1.0 μg for subjects randomized to doxercalciferol treatment), with increases in steps of one capsule per day permitted after four weeks. The maximum dosage was limited to 10 capsules per day (5.0 μg/day of doxercalciferol). Subjects were monitored at regular intervals for plasma iPTH, serum calcium and phosphorus, 24-hour and fasting urinary calcium, bone-specific serum markers, plasma total 1α,25-(OH)2D, and routine blood chemistries and hematologies. Glomerular filtration rate (GFR) was measured prior to beginning the treatment and at study termination. No physical or biochemical differences were detectable between the two treatment groups prior to starting treatment. […] On enrollment, each subject was assigned, at random, in double-blinded fashion, to one of two treatment groups. Both treatment groups completed an 8-week Baseline Period (Weeks −8 to 0) and then underwent therapy with either orally administered doxercalciferol or placebo for a 24-week Treatment Period (Weeks 1 to 24). Irrespective of treatment group assignment, each subject discontinued any 1α,25-dihydroxivitamin D3 (1α,25(OH)2D3) therapy for the duration of the study. Throughout the Baseline Period and the subsequent Treatment Period, subjects were monitored at regular intervals for plasma iPTH, serum calcium, serum phosphorus, and 24-hour and fasting urinary calcium, phosphorus and creatinine. Routine blood chemistries and hematologies, bone-specific serum markers, and plasma total 1α,25(OH)2D were also monitored at selected intervals. Glomerular filtration rate (GFR) was measured prior to beginning treatment and at termination. Subjects qualified for inclusion in the Baseline Period if they were aged 18 to 85 years, had mild to moderate CR1 with serum creatinine between 1.8 to 5.0 mgldL (for men) or 1.6 to 4.0 mg/dL (for women), and had elevated plasma iPTH values (>85 pg/mL). Subjects receiving ongoing treatment with estrogen were required to maintain the same estrogen dosing regimen throughout the study. Subjects who began dialysis treatment or underwent renal transplantation were required to prematurely terminate participation. […] Patients were also excluded who had hypercalcemia, hyperthyroidism, sarcoidosis, malignancy requiring chemotherapy, hormonal therapy and/or radiation treatment, chronic gastrointestinal disease (i.e., malabsorption, surgery affecting absorption, and chronic ulcerative colitis), hepatic impairment, or any other condition which may have put the patient at undue risk. […] The two studies were conducted under double-blind conditions in each geographical region. Assignments of subjects to the two treatment groups were made randomly, by geographical region, in order of enrollment. The randomization was accomplished in subgroups of size 10, 5 subjects assigned to each of the two treatment groups. The randomization was performed by an independent statistician using the Statistical Analysis System (SAS). 1α-hydroxyvitamin D2 (available as doxercalciferol from Bone Care International) was formulated for oral administration as soft elastic gelatin capsules in units of 0.5 mcg/capsule. […] The initial dose of test drug (doxercalciferol or placebo) was 2 capsules (totaling a 1.0 μg dose for subjects receiving doxercalciferol) every day before breakfast. This dosage was increased as necessary at monthly intervals, to suppress plasma iPTH levels by at least 30% from baseline. […]

PTH levels = settings: Malluche et al., Nephrol. Dial. Transplant., 2004; cited from earlier work
[5] = after the 24 week treatment period
[6] = Treatment Period, active treatment

Average serum phosphorous levels [1, 5]: 2.4 to 5 mg/dL | Serum bone-specific markers alkaline phosphatase, N- and C-telopeptides, and osteocalcin [1, 5]: average normal levels | Average serum phosphorous levels [2, 5]: 2.4 to 5 mg/dL | Serum bone-specific markers alkaline phosphatase, N- and C-telopeptides, and osteocalcin [2, 5]: average normal levels | Serum 1α,25-(OH)2D2 ([3]; during treatment): dramatic rise | Mild hypercalcemia (10.2-10.4 mg/dL), subjects affected ([3]; first year): four | Moderate hypercalcemia (10.4-10.8 mg/dL), subjects affected ([3]; over the course of the study, prescribed dosages 5.0 μg/day): two | Hypercalciuria observed occasionally, subjects affected ([3]; over the two-year study): 17 subjects | Marked hypercalcemia (>10.8 mg/dL), subjects affected ([3]; prescribed dosage 5.0 μg/day, in association with an intercurrent illness): one | Mild hypercalcemia (10.2-10.4 mg/dL), subjects affected ([3]; second year): two | Episodes of hypercalciuria (24-hour urine calcium >200 mg or fasting urine Ca/Cr ratio above 0.25) ([4]; Treatment Period): No episodes | Episodes of hyperphosphatemia (serum phosphorus >5.0 mg/dL) [4, 6]: 15 episodes | Subjects with hyperphosphatemia (serum phosphorus >5.0 mg/dL) [4, 6]: 10 subjects | Mean (±SE) serum phosphorus ([4]; Week 24, baseline 4.02±0.15 mg/dL): 4.27 ± 0.13 mg/dL | Mean (±SE) serum calcium ([4]; Week 24, baseline 8.74±0.12 mg/dL): 9.14 ± 0.11 mg/dL | Duration of hypercalcemia episode ([4]; episode with onset in Week 4): 5 weeks | Maximum serum calcium recorded during hypercalcemia episode ([4]; episode with onset in Week 4, one subject): 10.9 mg/dL | Duration of hypercalcemia episode ([4]; episode with onset in Week 16): 8 weeks | Maximum serum calcium recorded during hypercalcemia episode ([4]; episode with onset in Week 16, one subject): 11.0 mg/dL | Episodes of hypercalcemia (corrected serum calcium >10.7 mg/dL) ([4]; in one subject, onsets Week 4 and Week 16): Two | Serum calcium in the excepted subject during treatment ([4]; one subject with pre-treatment serum calcium as high as 10.7 mg/dL): 11.0 mg/dL
SMILES: C=C1/C(=C\C=C2/CCC[C@]3(C)[C@@H]([C@H](C)/C=C/[C@H](C)C(C)C)CC[C@@H]23)C[C@@H](O)C[C@@H]1O [1α-(OH)D2, 1α-hydroxyvitamin D2]
Serum 1,25-dihydroxyvitamin D levels between doses ([1]; between doses of 1α-(OH)D2): within the patients normal historical physiological range | Serum 1,25-dihydroxyvitamin D levels between doses ([2]; between doses of 1α-(OH)D2): within the patients normal historical physiological range | Increase in intestinal absorption of orally administered Ca relative to placebo control ([3]; after 52 weeks, P<0.001): 40% | Increase in intestinal absorption of orally administered Ca relative to placebo control ([3]; after 104 weeks, P<0.5): 29% | Decrease in serum levels of PTH relative to placebo therapy ([3]; at 1-4 weeks (so in the source)): 25% | Increase in mean serum total 1α,25-(OH)2D3 relative to placebo therapy ([3]; at 24 months, P<0.01): 49% | Decrease in serum levels of PTH relative to placebo therapy ([3]; at 52 weeks): 17% | Increase in mean serum total 1α,25-(OH)2D3 relative to placebo therapy ([3]; at six months, P<0.05): 21% | Mean urine calcium during initial titration period ([3]; dosage titrated 1.0 to 5.0 μg/day): increased during the initial titration period in a dose-response fashion | Bone mineral density (BMD) in the L2-L4 vertebrae ([3]; two-year study, decreased with placebo, difference P<0.05 after 24 months): progressively increased | Renal function and rates of adverse events vs placebo ([4]; 24 weeks): No differences between treatment groups | Subjects achieving plasma iPTH suppression of ≧30% from baseline (percentage) ([4]; 27 subjects in the active group, mean of Weeks 20 and 24, placebo 7.1%): 74% | Mean serum osteocalcin, upward trend from baseline ([4]; Week 4): ~10% | Mean (±SE) plasma iPTH ([4]; Week 4): 165 ± 15 pg/mL | Mean reduction of plasma iPTH from baseline ([4]; Week 8): 26.3% | Mean serum osteocalcin, decline from baseline ([4]; Week 24): about 20% | Mean (±SE) plasma iPTH ([4]; Week 24, p<0.001 vs. baseline): 118 ± 17 pg/mL | Mean reduction (suppression) of plasma iPTH from baseline ([4]; Week 24, p<0.001): 45.6% | Mean alkaline phosphatase ([4]; Weeks 16 and 24, p<0.05): reduced significantly from baseline | Mean serum total 1,25-dihydroxyvitamin D levels ([4]; all treatment weeks, did not differ significantly between groups): increased significantly from baseline | Mean reduction in serum bone-specific alkaline phosphatase (BSAP) from baseline ([4]; by Week 16): 19.7±3.7% | Mean reduction in serum bone-specific alkaline phosphatase (BSAP) from baseline ([4]; by Week 24): 27.9±4.6% | Rise in mean serum 1,25-dihydroxyvitamin D from baseline levels ([4]; during treatment, no change in placebo group): ~50% | iPTH increase in an individual subject ([4]; end of treatment, one subject): 3.9% | iPTH reduction in individual subjects not reaching ≧30% suppression ([4]; end of treatment, single subjects, listed as doxercalciferol): 24.0% and 24.2% and 19.6% | Subjects achieving plasma iPTH suppression of ≧30% from baseline (number) ([4]; of 27 subjects in the active group, mean of Weeks 20 and 24): 20 subjects | iPTH increase in a subject at discontinuation ([4]; one subject, discontinued in Week 5): 22.8% | Plasma iPTH suppression from baseline in a subject at discontinuation ([4]; one subject, discontinued in Week 8): 27.9% | Plasma iPTH suppression in a subject at discontinuation ([4]; one subject, discontinued in Week 17): 44.4% | Serum C- and N-telopeptides and bone-specific alkaline phosphate ([4]; relative to baseline and placebo treatment, p<0.01): decreased

SMILES: C=C1/C(=C\C=C2/CCC[C@]3(C)[C@@H]([C@H](C)CCCC(C)(C)O)CC[C@@H]23)C[C@@H](O)C[C@@H]1O [calcitriol, 1,25-dihydroxyvitamin D3]
Effect of treatment on PTH levels (PTH levels): over suppression of PTH levels
